The cell lines below were run with CC(C)N(CCCNC(=O)Nc1ccc(C(C)(C)C)cc1)C[C@H]1O[C@@H](n2ccc3c(N)ncnc32)[C@H](O)[C@@H]1O + O=C(c1cc(Cc2n[nH]c(=O)c3ccccc23)ccc1F)N1CCN(C(=O)C2CC2)CC1 [Olaparib] (partner 8 µM) (assay: relative viability (nuclei count vs DMSO), 5 days (fraction); higher = more cells survive). Conditions: first compound 0.08 µM.
How it was run: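 For relative viability, nuclei counts in treated wells were divided by those in vehicle wells. Lung cancer cell lines had been pin-tool dosed in 1536-well plates the day after seeding and cultured for 5 days, then fixed and stained in one step (final 0.05% Triton X-100, 1% formaldehyde, 1 ug/ml Hoechst) and imaged at 4×. Doses were one drug alone or a fixed anchor-drug dose plus five library-drug doses (not always all listed) in √10 steps, and values are duplicate-plate medians.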

Row | Cell Line | relative viability
1 | NCI-H2342 | 0.4
2 | PC-14 | 0.303
3 | NCI-H1650 | 0.662
4 | EBC-1 | 0.766
5 | NCI-H1703 | 0.52
6 | NCI-H2009 | 0.723
7 | NCI-H1993 | 1.06
8 | NCI-H520 | 0.303
9 | PC-3 [JPC-3] | 1.12
10 | LCLC-103H | 0.734
11 | NCI-H647 | 0.439
12 | NCI-H2228 | 0.879
13 | EMC-BAC-2 | 0.486
14 | NCI-H2087 | 0.599
15 | Calu-6 | 0.521
16 | HCC-366 | 0.336
17 | NCI-H1666 | 0.704
18 | NCI-H650 | 0.376
19 | LK-2 | 0.713
20 | NCI-H2126 | 0.873
21 | NCI-H1648 | 0.866
22 | SK-MES-1 | 0.83
23 | H3255 | 0.552
24 | COR-L23 | 0.297

Row | Cell Line | relative viability
25 | COR-L 105 | 0.678
26 | IA-LM | 0.776
27 | LOU-NH91 | 0.886
28 | ChaGo-K-1 | 0.423
29 | NCI-H2170 | 0.59
30 | NCI-H3122 | 0.684
31 | HOP-62 | 0.242
32 | HCC-44 | 1
33 | A549 | 0.409
34 | NCI-H522 | 0.754
35 | LU99A | 0.322
36 | BEN | 0.974
37 | HARA | 0.844
38 | SW 900 | 0.783
39 | HCC-78 | 0.885
40 | NCI-H441 | 0.558
41 | LCLC-97TM1 | 0.343
42 | NCI-H2023 | 0.491
43 | A-427 | 0.71
44 | NCI-H460 | 0.391
45 | NCI-H838 | 0.75
46 | NCI-H1734 | 0.574
47 | NCI-H596 | 0.667
48 | NCI-H2405 | 0.854

Row | Cell Line | relative viability
49 | NCI-H1395 | 0.496
50 | 201T | 0.83
51 | NCI-H1915 | 0.244
52 | HCC-827 | 0.63
53 | LXF-289 | 1.02
54 | NCI-H2347 | 0.525
55 | NCI-H1299 | 1.03
56 | NCI-H661 | 0.85
57 | CAL-12T | 0.735
58 | NCI-H1651 | 0.174
59 | EPLC-272H | 0.669
60 | NCI-H23 | 0.334
61 | NCI-H1792 | 0.434
62 | NCI-H1355 | 0.695
63 | NCI-H322M | 0.741
64 | NCI-H1437 | 0.604
65 | NCI-H1755 | 0.892
66 | NCI-H2085 | 0.749
67 | HCC-15 | 0.669
68 | NCI-H1793 | 0.808
69 | RERF-LC-KJ | 0.887
70 | EKVX | 0.818

Same assay, conditions: first compound 0.253 µM

Row | Cell Line | relative viability
71 | NCI-H2342 | 0.463
72 | PC-14 | 0.249
73 | NCI-H1650 | 0.922
74 | EBC-1 | 0.746
75 | NCI-H1703 | 0.446
76 | NCI-H2009 | 0.643
77 | NCI-H520 | 0.389
78 | PC-3 [JPC-3] | 1.15
79 | LCLC-103H | 0.697
80 | NCI-H647 | 0.507
81 | NCI-H2228 | 0.712
82 | EMC-BAC-2 | 0.513
83 | NCI-H2087 | 0.694
84 | Calu-6 | 0.53
85 | HCC-366 | 0.428
86 | NCI-H1666 | 0.755
87 | NCI-H650 | 0.468
88 | LK-2 | 0.544
89 | NCI-H2126 | 0.932
90 | NCI-H1648 | 1
91 | SK-MES-1 | 0.811
92 | H3255 | 0.562

Row | Cell Line | relative viability
93 | COR-L23 | 0.376
94 | COR-L 105 | 0.724
95 | IA-LM | 0.956
96 | LOU-NH91 | 0.86
97 | ChaGo-K-1 | 0.413
98 | NCI-H2170 | 0.573
99 | NCI-H3122 | 0.632
100 | HOP-62 | 0.642
101 | HCC-44 | 1.03
102 | A549 | 0.32
103 | NCI-H522 | 0.636
104 | LU99A | 0.252
105 | BEN | 1.25
106 | HARA | 0.737
107 | SW 900 | 0.875
108 | HCC-78 | 0.734
109 | NCI-H441 | 0.632
110 | LCLC-97TM1 | 0.318
111 | NCI-H2023 | 0.458
112 | A-427 | 0.779
113 | NCI-H460 | 0.433
114 | NCI-H838 | 0.829

Row | Cell Line | relative viability
115 | NCI-H1734 | 0.608
116 | NCI-H596 | 0.67
117 | NCI-H2405 | 0.906
118 | NCI-H1395 | 0.443
119 | 201T | 0.891
120 | NCI-H1915 | 0.288
121 | HCC-827 | 0.706
122 | LXF-289 | 1.08
123 | NCI-H2347 | 0.593
124 | NCI-H1299 | 0.926
125 | NCI-H661 | 0.758
126 | CAL-12T | 0.775
127 | NCI-H1651 | 0.197
128 | EPLC-272H | 0.85
129 | NCI-H1355 | 0.776
130 | NCI-H322M | 0.797
131 | NCI-H1437 | 0.642
132 | NCI-H1755 | 0.902
133 | NCI-H2085 | 0.834
134 | HCC-15 | 0.754
135 | RERF-LC-KJ | 1.04
136 | EKVX | 0.83

Same assay, conditions: first compound 0.8 µM

Row | Cell Line | relative viability
137 | NCI-H2342 | 0.419
138 | PC-14 | 0.281
139 | NCI-H1650 | 0.805
140 | EBC-1 | 0.76
141 | NCI-H2009 | 0.644
142 | NCI-H1993 | 1.07
143 | NCI-H520 | 0.356
144 | LCLC-103H | 0.699
145 | NCI-H647 | 0.508
146 | NCI-H2228 | 0.427
147 | EMC-BAC-2 | 0.472
148 | NCI-H2087 | 0.553
149 | Calu-6 | 0.547
150 | HCC-366 | 0.328
151 | NCI-H1666 | 0.828
152 | NCI-H650 | 0.305
153 | LK-2 | 0.771
154 | NCI-H2126 | 0.901
155 | NCI-H1648 | 1.03
156 | SK-MES-1 | 0.734
157 | H3255 | 0.555
158 | COR-L23 | 0.365
159 | COR-L 105 | 0.702
160 | IA-LM | 0.937
161 | ChaGo-K-1 | 0.431

— the supplement of paper PMC10307832
